Results published in patent publication US20240401094A1, “SOLID FORM OF (-)-AMBROX FORMED BY A BIOCONVERSION OF HOMOFARNESOL IN THE PRESENCE OF A BIOCATALYST” (Givaudan SA, priority 2016, published 2024).

Experiment: Sensory analysis (odour / GC-detection threshold and odour character)
Details: for odour description: result in words
Description: Purpose: to Carry Out a Sensory Analysis of (−)-Ambrox and the Compounds (II), (III) and (IV) Formed in the Crude Material and in the Crystallised Material.

CC1(C)CCC[C@@]2(C)[C@H]1CC[C@@]1(C)OCC[C@@H]21 [Compound (III), epi-Ambrox]
GC-threshold relative to (−)-Ambrox (times higher) (compared with (−)-Ambrox): about 10 × | odor weaker than (−)-Ambrox (compared with (−)-Ambrox): about 10 fold | GC-detection threshold (sensory analysis): circa 2 ng | odour description (sensory analysis, listed as Compound III): essentially odorless | odour description (sensory analysis, listed as III): weaker odour

CC1(C)CCC[C@]2(C)[C@H]3CCO[C@]3(C)CC[C@@H]12 [(−)-Ambrox]
Odour Threshold (sensory analysis): 0.2 ng/L

CC1(C)CCC[C@@]2(C)[C@H]1CC[C@]1(C)OCC[C@@H]21 [Compound (IV)]
GC-detection threshold (sensory analysis): 5 to 10 ng | odour description (sensory analysis): weak, IsoE, woody | odour description (sensory analysis, listed as IV): weaker odour

C/C1=C/CCO[C@@]2(C)CCCC(C)(C)[C@@H]2CC1 [Compound (II)]
detection threshold (as stated in the description): > 500 ng/L | GC-detection threshold (sensory analysis): > 500 ng | odour description (sensory analysis): “odorless” | odour description (sensory analysis, listed as II): weaker odour | odour description (sensory analysis, listed as compound of formula (II)): practically odourless
